# Laboratory results as given in the supplement of paper PMC8882468.
# ± gives the standard deviation of the averaged measurements.
# What was measured:
# Assay in all cases: CTG-3D luminescence at 96 h relative to day-0 seeding control (ratio to day 0); higher = more growth / less cytotoxicity; PDxO 3D drug screen (set 2), 96 h, CTG-3D normalised to day-0 seeding control.
# [1] = test system: HCI-008 (organoid from a HER2-enriched breast cancer xenograft)
# [2] = test system: HCI-017.E2 (organoid from an ER-positive breast cancer xenograft)
# [3] = test system: HCI-011.E2 (organoid from an ER-positive breast cancer xenograft)
# [4] = test system: HCI-025 (organoid from a breast cancer xenograft)
# [5] = test system: HCI-016 (organoid from a triple-negative breast cancer xenograft)
compound,measurement,setting,value
O=C(c1cc(Cc2n[nH]c(=O)c3ccccc23)ccc1F)N1CCN(C(=O)C2CC2)CC1 [olaparib],CTG-3D luminescence at 96 h,"[1]; 12.5 pM, days in culture: 325",1.39
same,CTG-3D luminescence at 96 h,"[1]; 12.5 pM, days in culture: 340",1.45
same,CTG-3D luminescence at 96 h,"[1]; 12.5 pM, days in culture: 354",1.36
same,CTG-3D luminescence at 96 h,"[1]; 12.5 pM, days in culture: 382",1.49
same,CTG-3D luminescence at 96 h,"[1]; 0.00025 µM, days in culture: 325",1.88
same,CTG-3D luminescence at 96 h,"[1]; 0.00025 µM, days in culture: 340",2.1
same,CTG-3D luminescence at 96 h,"[1]; 0.00025 µM, days in culture: 354",1
same,CTG-3D luminescence at 96 h,"[1]; 0.00025 µM, days in culture: 382",1.46
same,CTG-3D luminescence at 96 h,"[1]; 0.005 µM, days in culture: 325",1.46
same,CTG-3D luminescence at 96 h,"[1]; 0.005 µM, days in culture: 340",1.84
same,CTG-3D luminescence at 96 h,"[1]; 0.005 µM, days in culture: 354",1.35
same,CTG-3D luminescence at 96 h,"[1]; 0.005 µM, days in culture: 382",1.23
same,CTG-3D luminescence at 96 h,"[1]; 0.1 µM, days in culture: 325",3.33
same,CTG-3D luminescence at 96 h,"[1]; 0.1 µM, days in culture: 340",1.46
same,CTG-3D luminescence at 96 h,"[1]; 0.1 µM, days in culture: 354",1.2
same,CTG-3D luminescence at 96 h,"[1]; 0.1 µM, days in culture: 382",2
same,CTG-3D luminescence at 96 h,"[1]; 1 µM, days in culture: 325",2.71
same,CTG-3D luminescence at 96 h,"[1]; 1 µM, days in culture: 340",1.67
same,CTG-3D luminescence at 96 h,"[1]; 1 µM, days in culture: 354",1.22
same,CTG-3D luminescence at 96 h,"[1]; 1 µM, days in culture: 382",0.89
same,CTG-3D luminescence at 96 h,"[1]; 10 µM, days in culture: 325",1.99
same,CTG-3D luminescence at 96 h,"[1]; 10 µM, days in culture: 354",1.33
same,CTG-3D luminescence at 96 h,"[1]; 10 µM, days in culture: 382",0.955
same,CTG-3D luminescence at 96 h,"[1]; 100 µM, days in culture: 325",0.484
same,CTG-3D luminescence at 96 h,"[1]; 100 µM, days in culture: 340",0.958
same,CTG-3D luminescence at 96 h,"[1]; 100 µM, days in culture: 354",0.836
same,CTG-3D luminescence at 96 h,"[1]; 100 µM, days in culture: 382",0.204
same,CTG-3D luminescence at 96 h,"[1]; 625 fM, days in culture: 325",1.65
same,CTG-3D luminescence at 96 h,"[1]; 625 fM, days in culture: 340",1.34
same,CTG-3D luminescence at 96 h,"[1]; 625 fM, days in culture: 354",1.44
same,CTG-3D luminescence at 96 h,"[1]; 625 fM, days in culture: 382",1.8
same,CTG-3D luminescence at 96 h,[2]; 12.5 pM,2.27 ± 0.03
same,CTG-3D luminescence at 96 h,"[2]; 12.5 pM, days in culture: 85",2.36
same,CTG-3D luminescence at 96 h,[2]; 0.00025 µM,2.61 ± 0.52
same,CTG-3D luminescence at 96 h,"[2]; 0.00025 µM, days in culture: 85",1.92
same,CTG-3D luminescence at 96 h,[2]; 0.005 µM,2.34 ± 0.22
same,CTG-3D luminescence at 96 h,"[2]; 0.005 µM, days in culture: 85",1.89
same,CTG-3D luminescence at 96 h,[2]; 0.1 µM,2.76 ± 0.57
same,CTG-3D luminescence at 96 h,"[2]; 0.1 µM, days in culture: 85",2.06
same,CTG-3D luminescence at 96 h,[2]; 1 µM,2.06 ± 0.25
same,CTG-3D luminescence at 96 h,"[2]; 1 µM, days in culture: 85",1.56
same,CTG-3D luminescence at 96 h,[2]; 10 µM,1.12 ± 0.051
same,CTG-3D luminescence at 96 h,"[2]; 10 µM, days in culture: 85",0.709
same,CTG-3D luminescence at 96 h,[2]; 100 µM,0.259 ± 0.025
same,CTG-3D luminescence at 96 h,"[2]; 100 µM, days in culture: 85",0.204
same,CTG-3D luminescence at 96 h,[2]; 625 fM,2.59 ± 0.23
same,CTG-3D luminescence at 96 h,"[2]; 625 fM, days in culture: 85",2.56
same,CTG-3D luminescence at 96 h,[3]; 12.5 pM,1.58 ± 0.066
same,CTG-3D luminescence at 96 h,"[3]; 12.5 pM, days in culture: 74",2.53
same,CTG-3D luminescence at 96 h,[3]; 0.00025 µM,1.55 ± 0.11
same,CTG-3D luminescence at 96 h,"[3]; 0.00025 µM, days in culture: 74",2.44
same,CTG-3D luminescence at 96 h,[3]; 0.005 µM,1.41 ± 0.24
same,CTG-3D luminescence at 96 h,"[3]; 0.005 µM, days in culture: 74",2.19
same,CTG-3D luminescence at 96 h,[3]; 0.1 µM,1.95 ± 0.21
same,CTG-3D luminescence at 96 h,"[3]; 0.1 µM, days in culture: 74",2.22
same,CTG-3D luminescence at 96 h,[3]; 1 µM,1.6 ± 0.13
same,CTG-3D luminescence at 96 h,"[3]; 1 µM, days in culture: 74",1.57
same,CTG-3D luminescence at 96 h,[3]; 10 µM,1.14 ± 0.1
same,CTG-3D luminescence at 96 h,"[3]; 10 µM, days in culture: 74",0.94
same,CTG-3D luminescence at 96 h,[3]; 100 µM,0.266 ± 0.099
same,CTG-3D luminescence at 96 h,"[3]; 100 µM, days in culture: 74",0.157
same,CTG-3D luminescence at 96 h,[3]; 625 fM,2.1 ± 0.43
same,CTG-3D luminescence at 96 h,"[3]; 625 fM, days in culture: 74",2.66
same,CTG-3D luminescence at 96 h,"[4]; 12.5 pM, days in culture: 175",1.97
same,CTG-3D luminescence at 96 h,"[4]; 12.5 pM, days in culture: 189",1.46
same,CTG-3D luminescence at 96 h,"[4]; 12.5 pM, days in culture: 212",3.74
same,CTG-3D luminescence at 96 h,"[4]; 12.5 pM, days in culture: 224",1.96
same,CTG-3D luminescence at 96 h,"[4]; 0.00025 µM, days in culture: 175",2.33
same,CTG-3D luminescence at 96 h,"[4]; 0.00025 µM, days in culture: 189",2.11
same,CTG-3D luminescence at 96 h,"[4]; 0.00025 µM, days in culture: 212",3.65
same,CTG-3D luminescence at 96 h,"[4]; 0.00025 µM, days in culture: 224",1.72
same,CTG-3D luminescence at 96 h,"[4]; 0.005 µM, days in culture: 175",1.9
same,CTG-3D luminescence at 96 h,"[4]; 0.005 µM, days in culture: 189",1.91
same,CTG-3D luminescence at 96 h,"[4]; 0.005 µM, days in culture: 212",1.79
same,CTG-3D luminescence at 96 h,"[4]; 0.005 µM, days in culture: 224",1.81
same,CTG-3D luminescence at 96 h,"[4]; 0.1 µM, days in culture: 175",1.95
same,CTG-3D luminescence at 96 h,"[4]; 0.1 µM, days in culture: 189",2.25
same,CTG-3D luminescence at 96 h,"[4]; 0.1 µM, days in culture: 212",1.22
same,CTG-3D luminescence at 96 h,"[4]; 0.1 µM, days in culture: 224",1.9
same,CTG-3D luminescence at 96 h,"[4]; 1 µM, days in culture: 175",3.08
same,CTG-3D luminescence at 96 h,"[4]; 1 µM, days in culture: 189",1.86
same,CTG-3D luminescence at 96 h,"[4]; 1 µM, days in culture: 212",1.32
same,CTG-3D luminescence at 96 h,"[4]; 1 µM, days in culture: 224",2.05
same,CTG-3D luminescence at 96 h,"[4]; 10 µM, days in culture: 175",2.2
same,CTG-3D luminescence at 96 h,"[4]; 10 µM, days in culture: 189",1.28
same,CTG-3D luminescence at 96 h,"[4]; 10 µM, days in culture: 212",1.72
same,CTG-3D luminescence at 96 h,"[4]; 10 µM, days in culture: 224",1.41
same,CTG-3D luminescence at 96 h,"[4]; 100 µM, days in culture: 175",0.866
same,CTG-3D luminescence at 96 h,"[4]; 100 µM, days in culture: 189",0.825
same,CTG-3D luminescence at 96 h,"[4]; 100 µM, days in culture: 212",0.66
same,CTG-3D luminescence at 96 h,"[4]; 100 µM, days in culture: 224",0.478
same,CTG-3D luminescence at 96 h,"[4]; 625 fM, days in culture: 175",2.02
same,CTG-3D luminescence at 96 h,"[4]; 625 fM, days in culture: 189",2.78
same,CTG-3D luminescence at 96 h,"[4]; 625 fM, days in culture: 212",2
same,CTG-3D luminescence at 96 h,"[4]; 625 fM, days in culture: 224",1.81
same,CTG-3D luminescence at 96 h,"[5]; 12.5 pM, days in culture: 305",2.92
same,CTG-3D luminescence at 96 h,"[5]; 12.5 pM, days in culture: 327",1.25
same,CTG-3D luminescence at 96 h,"[5]; 12.5 pM, days in culture: 341",1.92
same,CTG-3D luminescence at 96 h,"[5]; 12.5 pM, days in culture: 397",1.5
same,CTG-3D luminescence at 96 h,"[5]; 0.00025 µM, days in culture: 305",2.24
same,CTG-3D luminescence at 96 h,"[5]; 0.00025 µM, days in culture: 327",0.765
same,CTG-3D luminescence at 96 h,"[5]; 0.00025 µM, days in culture: 341",1.78
same,CTG-3D luminescence at 96 h,"[5]; 0.00025 µM, days in culture: 397",2.56
same,CTG-3D luminescence at 96 h,"[5]; 0.005 µM, days in culture: 305",2.09
same,CTG-3D luminescence at 96 h,"[5]; 0.005 µM, days in culture: 327",1.45
same,CTG-3D luminescence at 96 h,"[5]; 0.005 µM, days in culture: 341",2.18
same,CTG-3D luminescence at 96 h,"[5]; 0.005 µM, days in culture: 397",1.17
same,CTG-3D luminescence at 96 h,"[5]; 0.1 µM, days in culture: 305",3.71
same,CTG-3D luminescence at 96 h,"[5]; 0.1 µM, days in culture: 327",1.31
same,CTG-3D luminescence at 96 h,"[5]; 0.1 µM, days in culture: 341",2.46
same,CTG-3D luminescence at 96 h,"[5]; 0.1 µM, days in culture: 397",1.75
same,CTG-3D luminescence at 96 h,"[5]; 1 µM, days in culture: 305",1.96
same,CTG-3D luminescence at 96 h,"[5]; 1 µM, days in culture: 327",1.34
same,CTG-3D luminescence at 96 h,"[5]; 1 µM, days in culture: 341",1.62
same,CTG-3D luminescence at 96 h,"[5]; 1 µM, days in culture: 397",2.07
same,CTG-3D luminescence at 96 h,"[5]; 10 µM, days in culture: 305",1.22
same,CTG-3D luminescence at 96 h,"[5]; 10 µM, days in culture: 327",1.59
same,CTG-3D luminescence at 96 h,"[5]; 10 µM, days in culture: 341",1.79
same,CTG-3D luminescence at 96 h,"[5]; 10 µM, days in culture: 397",1.74
same,CTG-3D luminescence at 96 h,"[5]; 100 µM, days in culture: 305",0.878
same,CTG-3D luminescence at 96 h,"[5]; 100 µM, days in culture: 327",1.23
same,CTG-3D luminescence at 96 h,"[5]; 100 µM, days in culture: 341",0.982
same,CTG-3D luminescence at 96 h,"[5]; 100 µM, days in culture: 397",0.249
same,CTG-3D luminescence at 96 h,"[5]; 625 fM, days in culture: 305",3.99
same,CTG-3D luminescence at 96 h,"[5]; 625 fM, days in culture: 327",1.74
same,CTG-3D luminescence at 96 h,"[5]; 625 fM, days in culture: 341",2.44
same,CTG-3D luminescence at 96 h,"[5]; 625 fM, days in culture: 397",2.79
